# Measurements published in ChEMBL document CHEMBL5055671, “Targeting a Novel KRAS Binding Site: Application of One-Component Stapling of Small (5-6-mer) Peptides” (J Med Chem, 2021).
# Numbered stars: 1 amine (or outer) side, 2 acyl side, 3 side chain; on linkers, the order of the positions; unused ones are H or OH. Bridge positions count the residues as written; N and C are the ends. Square brackets hold non-standard residues; d marks the D form. Peptide text beside a SMILES is read from it. ξ: configuration not given here. Nle(4-yne,6-yl) = O=C([C@H](CC#CC[*:3])N[*:1])[*:2]; ξIle = CC[C@H](C)C(N)C(=O)O
# Target: GTPase KRas (Homo sapiens, UniProt P01116, G12V)
# Assay: Inhibition of alexa fluor 647-labeled kinase tracer 314 binding to biotinylated-KRAS G12V mutant (unknown origin) measured after 60 mins by HTRF competition binding assay
# Conditions: not given
row,SMILES,pIC50
1,CC(C)C[C@H](NC(=O)[C@H]1COCc2cn(nn2)CCCCC(=O)NCC(=O)N2CCC[C@H]2C(=O)N[C@@H](Cc2cccc3ccccc23)C(=O)N1)C(N)=O,< 4

# Same assay, conditions: read-out: IC50
row,SMILES,IC50 [µM]
1,CC[C@@H](C)[C@@H]1NC(=O)[C@@H]2CCCN2C(=O)[C@H](Cc2ccc(O)cc2)NC(=O)[C@@H](NC(=O)[C@H](CC(=O)O)NC(C)=O)CCCn2nncc2COC[C@@H](C(=O)N[C@@H](CC(C)C)C(=O)N[C@@H](CC(C)C)C(=O)N2CCC[C@H]2C(N)=O)NC1=O,> 89
2,CC(=O)N[C@@H](CC(=O)O)C(=O)N[C@H]1CCCn2nncc2COC[C@@H](C(=O)N[C@@H](CC(C)C)C(=O)N[C@@H](C)C(=O)N2CCC[C@H]2C(N)=O)NC(=O)[C@H](Cc2cccc3ccccc23)NC(=O)[C@@H]2CCCN2C(=O)CNC1=O,40
3,CC(C)C[C@H](NC(=O)[C@@H]1COCc2cnnn2CCCCCCCCCC(=O)N2CCC[C@H]2C(=O)N[C@@H](Cc2cccc3ccccc23)C(=O)N1)C(N)=O,28
4,NC(=O)[C@@H](NC(=O)[C@@H]1COCc2cnnn2CCCCC(=O)NCC(=O)N2CCC[C@H]2C(=O)N[C@@H](Cc2cccc3ccccc23)C(=O)N1)C1CCCCC1,78
5,NC(=O)CC[C@H](NC(=O)[C@@H]1COCc2cnnn2CCCCC(=O)NCC(=O)N2CCC[C@H]2C(=O)N[C@@H](Cc2cccc3ccccc23)C(=O)N1)C(N)=O,50
6,CC(C)C[C@H](NC(=O)[C@@H]1COCc2cnnn2CCCCCC(=O)N2CCC[C@H]2C(=O)N[C@@H](Cc2cccc3ccccc23)C(=O)N1)C(N)=O,12
7,CC(C)C[C@H](NC(=O)[C@@H]1COCc2cnnn2CCCCC(=O)NCC(=O)N2CCC[C@H]2C(=O)N[C@@H](CC(C)C)C(=O)N1)C(N)=O,60
8,CC(=O)N[C@@H](CCC(=O)O)C(=O)N[C@H]1CCCn2nncc2COC[C@@H](C(=O)N[C@@H](CC(C)C)C(=O)N[C@@H](C)C(=O)N2CCC[C@H]2C(N)=O)NC(=O)[C@H](Cc2cccc3ccccc23)NC(=O)[C@@H]2CCCN2C(=O)CNC1=O,> 83
9,CC(C)C[C@H](NC(=O)[C@H]1Cn2nncc2CCCC(=O)NCC(=O)N2CCC[C@H]2C(=O)N[C@@H](Cc2cccc3ccccc23)C(=O)N1)C(N)=O,31
10,CC(C)C[C@H](NC(=O)[C@@H]1COCc2cnnn2CCCCC(=O)NCC(=O)N2CCC[C@H]2C(=O)N[C@@H](Cc2ccccc2Cl)C(=O)N1)C(N)=O,> 100
11,C[C@H](NC(=O)[C@@H]1COCc2cnnn2CCCCC(=O)NCC(=O)N2CCC[C@H]2C(=O)N[C@@H](Cc2cccc3ccccc23)C(=O)N1)C(N)=O,37
12,CC(C)C[C@H](NC(=O)[C@@H]1COCc2cnnn2CCCCC(=O)NCC(=O)N2CC[C@@H](O)[C@H]2C(=O)N[C@@H](Cc2cccc3ccccc23)C(=O)N1)C(N)=O,70
13,"CC[C@H](C)C1NC(=O)[C@@H]2CCCN2C(=O)[C@H](Cc2ccc(O)cc2)NC(=O)[C@@H](NC(=O)[C@H](CC(=O)O)NC(=O)[C@H](Cc2ccc(O)cc2)NC(=O)[C@H](Cc2ccccc2)NC(=O)[C@H](Cc2c[nH]cn2)NC(=O)[C@@H](N)Cc2ccccc2)CC#CCSC[C@@H](C(=O)N[C@@H](CC(C)C)C(=O)N[C@H](C(=O)N2CCC[C@H]2C(=O)N2CCC[C@H]2C(N)=O)[C@@H](C)CC)NC1=O (some centres undefined) (H-FHFYD[Nle(4-yne,6-yl)]YP[ξIle]CLIPP-NH2; thioether 6-10)",0.023
14,CC(=O)N[C@@H](CCC(=O)O)C(=O)N[C@H]1CCCn2nncc2COC[C@H](C(=O)N[C@@H](CC(C)C)C(N)=O)NC(=O)[C@H](Cc2cccc3ccccc23)NC(=O)[C@@H]2CCCN2C(=O)CNC1=O,93
15,CC(C)C[C@H](NC(=O)[C@@H]1COCc2cnnn2CCCCC(=O)NCC(=O)N2CCC[C@H]2C(=O)N[C@@H](c2ccccc2)C(=O)N1)C(N)=O,> 100
16,CC(C)C[C@H](NC(=O)[C@@H]1COCc2cnnn2CCCCC(=O)NCC(=O)N2CCC[C@H]2C(=O)N[C@@H](Cc2ccc3ccccc3c2)C(=O)N1)C(N)=O,9.5
17,CC(C)C[C@H](NC(=O)[C@@H]1COCc2cnnn2CCCCC(=O)N[C@@H](CCC(=O)O)C(=O)N2CCC[C@H]2C(=O)N[C@@H](Cc2cccc3ccccc23)C(=O)N1)C(N)=O,49
18,CC(C)C[C@H](NC(=O)[C@@H]1COCc2cnnn2CCCCC(=O)N[C@@H](CC(=O)O)C(=O)N2CCC[C@H]2C(=O)N[C@@H](Cc2cccc3ccccc23)C(=O)N1)C(N)=O,66
19,CC(C)C[C@H](NC(=O)[C@@H]1COCc2cnnn2CCCCC(=O)N[C@H](CC(=O)O)C(=O)N2CCC[C@H]2C(=O)N[C@@H](Cc2cccc3ccccc23)C(=O)N1)C(N)=O,77
20,NC(=O)C[C@H](NC(=O)[C@@H]1COCc2cnnn2CCCCC(=O)NCC(=O)N2CCC[C@H]2C(=O)N[C@@H](Cc2cccc3ccccc23)C(=O)N1)C(N)=O,48
21,CC(C)C[C@H](NC(=O)[C@@H]1COCc2cnnn2CCCCC(=O)N[C@H](C)C(=O)N2CCC[C@H]2C(=O)N[C@@H](Cc2cccc3ccccc23)C(=O)N1)C(N)=O,25
22,CC(C)C[C@H](NC(=O)[C@H]1COCc2cn(nn2)CCCCC(=O)NCC(=O)N2CCC[C@H]2C(=O)N[C@@H](Cc2cccc3ccccc23)C(=O)N1)C(N)=O,> 100
23,CC(C)C[C@H](NC(=O)[C@H]1CCCc2cnnn2CCCCC(=O)NCC(=O)N2CCC[C@H]2C(=O)N[C@@H](Cc2cccc3ccccc23)C(=O)N1)C(N)=O,19
24,CCCC[C@H](NC(=O)[C@@H]1COCc2cnnn2CCCCC(=O)NCC(=O)N2CCC[C@H]2C(=O)N[C@@H](Cc2cccc3ccccc23)C(=O)N1)C(N)=O,100
25,CC(C)C[C@H](NC(=O)[C@@H]1COCc2cnnn2CCCCCCCC(=O)N2CCC[C@H]2C(=O)N[C@@H](Cc2cccc3ccccc23)C(=O)N1)C(N)=O,81
26,CC(C)C[C@H](NC(=O)[C@@H]1COCc2cnnn2CCCCC(=O)NCC(=O)N(C)[C@@H](C(C)C)C(=O)N[C@@H](Cc2cccc3ccccc23)C(=O)N1)C(N)=O,100

row,SMILES,IC50 [µM]
1,CC(C)C[C@H](NC(=O)[C@@H]1COCc2cnnn2CCCCC(=O)NCC(=O)N2CCC[C@H]2C(=O)N[C@@H](CC2CCCCC2)C(=O)N1)C(N)=O,100
2,CC(C)C[C@H](NC(=O)[C@@H]1COCc2cnnn2CCCCC(=O)NCC(=O)N2CCC[C@H]2C(=O)N[C@@H](Cc2cccnc2)C(=O)N1)C(N)=O,41
3,CC(C)C[C@H](NC(=O)[C@@H]1COCc2cnnn2CCCCC(=O)NCC(=O)N2CCC[C@H]2C(=O)N[C@@H](Cc2cccs2)C(=O)N1)C(N)=O,53
4,CC(C)C[C@H](NC(=O)[C@@H]1COCc2cnnn2CCCCC(=O)NCC(=O)N2C[C@H](O)C[C@H]2C(=O)N[C@@H](Cc2cccc3ccccc23)C(=O)N1)C(N)=O,95
5,CCCC[C@@H]1NC(=O)[C@@H]2CCCN2C(=O)CNC(=O)CCCCn2nncc2COC[C@@H](C(=O)N[C@@H](CC(C)C)C(N)=O)NC1=O,48
6,CC(C)C[C@H](NC(=O)[C@@H]1COCc2cnnn2CCCCC(=O)NCC(=O)NC(C)(C)C(=O)N[C@@H](Cc2cccc3ccccc23)C(=O)N1)C(N)=O,20
7,CC(C)C[C@H](NC(=O)[C@@H]1COCc2cnnn2CCCCC(=O)NCC(=O)N2CCC[C@H]2C(=O)N[C@@H](Cc2c[nH]c3ccccc23)C(=O)N1)C(N)=O,18
8,CC(C)C[C@H](NC(=O)[C@@H]1COCc2cnnn2CCCCC(=O)N[C@@H](C)C(=O)N2CCC[C@H]2C(=O)N[C@@H](Cc2cccc3ccccc23)C(=O)N1)C(N)=O,9.7
9,NC(=O)[C@H](CC1CC1)NC(=O)[C@@H]1COCc2cnnn2CCCCC(=O)NCC(=O)N2CCC[C@H]2C(=O)N[C@@H](Cc2cccc3ccccc23)C(=O)N1,29
10,CC(C)C[C@H](CC(=O)[C@@H]1COCc2cnnn2CCCCC(=O)NCC(=O)N2CCC[C@H]2C(=O)C[C@@H](C)C(=O)C1)C(N)=O,91
11,CC(C)C[C@H](NC(=O)[C@H]1CCn2nncc2CCCC(=O)NCC(=O)N2CCC[C@H]2C(=O)N[C@@H](Cc2cccc3ccccc23)C(=O)N1)C(N)=O,13
12,CC(C)C[C@H](NC(=O)[C@@H]1COCc2cnnn2CCCCC(=O)NCC(=O)N2CC[C@H]2C(=O)N[C@@H](Cc2cccc3ccccc23)C(=O)N1)C(N)=O,32
13,CC(C)C[C@H](NC(=O)[C@@H]1COCc2cnnn2CCCCC(=O)NCC(=O)N2Cc3ccccc3C[C@H]2C(=O)N[C@@H](Cc2cccc3ccccc23)C(=O)N1)C(N)=O,5.8
14,CC(C)C[C@H](NC(=O)[C@@H]1COCc2cnnn2CCCCC(=O)NCC(=O)N2CCC[C@H]2C(=O)N[C@@H](Cc2ccc(Cl)cc2)C(=O)N1)C(N)=O,> 74
15,CC(C)C[C@@H](C(N)=O)N(C)C(=O)[C@@H]1COCc2cnnn2CCCCC(=O)NCC(=O)N2CCC[C@H]2C(=O)N[C@@H](Cc2cccc3ccccc23)C(=O)N1,26
16,CC(C)C[C@H](NC(=O)[C@@H]1COCc2cnnn2CCCCC(=O)NCC(=O)N2CCC[C@H]2C(=O)N[C@@H](Cc2ccccc2)C(=O)N1)C(N)=O,> 38
17,NC(=O)[C@H](CC1CCCCC1)NC(=O)[C@@H]1COCc2cnnn2CCCCC(=O)NCC(=O)N2CCC[C@H]2C(=O)N[C@@H](Cc2cccc3ccccc23)C(=O)N1,100
18,CC(C)C[C@H](NC(=O)[C@@H]1COCc2cnnn2CCCCC(=O)NCC(=O)N2CCCCC[C@H]2C(=O)N[C@@H](Cc2cccc3ccccc23)C(=O)N1)C(N)=O,55
19,CC(C)C[C@H](NC(=O)[C@@H]1COCc2cnnn2CCCCC(=O)N[C@H](CCC(=O)O)C(=O)N2CCC[C@H]2C(=O)N[C@@H](Cc2cccc3ccccc23)C(=O)N1)C(N)=O,100
20,CC(=O)N[C@@H](CC(=O)O)C(=O)N[C@H]1CCCn2nncc2COC[C@H](C(=O)N[C@@H](CC(C)C)C(N)=O)NC(=O)[C@H](Cc2cccc3ccccc23)NC(=O)[C@@H]2CCCN2C(=O)CNC1=O,38
21,CC(C)C[C@H](NC(=O)[C@@H]1COCc2cnnn2CCCCC(=O)NCC(=O)N2CCC[C@H]2C(=O)N[C@H](Cc2ccccc2)C(=O)N1)C(N)=O,> 82
22,CC(C)C[C@H](NC(=O)[C@@H]1COCc2cnnn2CCCCC(=O)N2CCC[C@H]2C(=O)N[C@@H](Cc2cccc3ccccc23)C(=O)N1)C(N)=O,48
23,CC(C)C[C@H](NC(=O)[C@H]1COCc2cnnn2CCCCC(=O)NCC(=O)N2CCC[C@H]2C(=O)N[C@@H](Cc2cccc3ccccc23)C(=O)N1)C(=O)N[C@@H](C)C(=O)N1CCC[C@H]1C(N)=O,46
24,CC(C)C[C@H](NC(=O)[C@@H]1COCc2cnnn2CCCCC(=O)NCC(=O)N2CCC[C@H]2C(=O)N[C@@H](CC2CC2)C(=O)N1)C(N)=O,32
25,CC(=O)N[C@@H](Cc1cccc2ccccc12)C(=O)N[C@@H](COCc1cnnn1CCCCC(=O)NCC(N)=O)C(=O)N[C@@H](CC(C)C)C(N)=O,38

# Same assay, conditions: read-out: pIC50 (converted)
row,SMILES,IC50 [µM]
1,CC[C@@H](C)[C@@H]1NC(=O)[C@@H]2CCCN2C(=O)[C@H](Cc2ccc(O)cc2)NC(=O)[C@@H](NC(=O)[C@H](CC(=O)O)NC(C)=O)CCCn2nncc2COC[C@@H](C(=O)N[C@@H](CC(C)C)C(=O)N[C@@H](CC(C)C)C(=O)N2CCC[C@H]2C(N)=O)NC1=O,> 79.4
2,CC(=O)N[C@@H](CCC(=O)O)C(=O)N[C@H]1CCCn2nncc2COC[C@@H](C(=O)N[C@@H](CC(C)C)C(=O)N[C@@H](C)C(=O)N2CCC[C@H]2C(N)=O)NC(=O)[C@H](Cc2cccc3ccccc23)NC(=O)[C@@H]2CCCN2C(=O)CNC1=O,> 79.4
